One assay addresses Aurora B (Homo sapiens, UniProt Q96GD4). The assay is described as follows: Kinase assay Aurora B (Table I). The class given is biochemical. To be noted: read-out: Kinase inhibition, IC50 Aurora B.
The subject of another assay is H460-luc. Kind of assay: 72 h MTT cytotoxicity assay H460-luc. To be noted: Homo sapiens, NCI-H460-Luc; H460-luc, 72 hrs; read-out: Cytotoxicity, MTT 72 hrs, IC50 H460-luc. The class given is cell-based. In a few lines: (§1)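 Viability was measured by the MTT method after 72 hrs of compound treatment at 37° C. Seeding density was 4000 cells per well, and IC50 values came from sigmoid curve fitting of absorbance at 562 nm.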
(In general: Tetrazolium assays rely on reduction of a dye to a coloured formazan, in cell work by metabolically active cells.)

The target in the next assay is T1, CDK2/cyclinA (Homo sapiens, UniProt P24941).
T1 construct: purchased Invitrogen PV3267
The assay is described as follows: Z'-LYTE kinase assay CDK2/cyclinA. Format: biochemical. The settings on record: read-out: Kinase inhibition, IC50 CDK2A. In short, it runs like this:
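Recombinant human CDK2/cyclinA (Invitrogen PV3267) at 8 ng/reaction was incubated with Z′-LYTE™ Ser/Thr 12 Peptide and ATP in 384-well plates holding diluted test compounds for 1 hr at room temperature. Buffer contained 20 μM ATP, HEPES pH 7.5, 5 mM MgCl2, 0.5 mM EGTA and 0.005% Brij-35. IC50 came from sigmoid curve fitting in Origin 6.0.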

For the next assay, the target named is T2, CDK1/cyclinB (Homo sapiens, UniProt P06493).
T2 construct: purchased Invitrogen PV3292
The assay is described as follows: Z'-LYTE kinase assay CDK1/cyclinB. Format: biochemical. The settings on record: read-out: Kinase inhibition, IC50 CDK1B. In short, it runs like this:
(§2)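 Z′-LYTE FRET assay with recombinant human enzymes; CDK1/cyclinB and CDK5/p35 at 0.8 ng/reaction on Ser/Thr 12 peptide. Compound and kinase incubated 1 hr at room temperature in 20 μM ATP, HEPES pH 7.5, MgCl2, EGTA, Brij-35, then developed 1 hr. Phosphorylation derived from 445/520 nm emission ratio (400 nm excitation); IC50 from sigmoid curve fit.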

The next assay addresses T3, Aurora A (Homo sapiens, UniProt O14965).
T3 construct: purchased Invitrogen PV3612
T3 sequence (O14965 1-403): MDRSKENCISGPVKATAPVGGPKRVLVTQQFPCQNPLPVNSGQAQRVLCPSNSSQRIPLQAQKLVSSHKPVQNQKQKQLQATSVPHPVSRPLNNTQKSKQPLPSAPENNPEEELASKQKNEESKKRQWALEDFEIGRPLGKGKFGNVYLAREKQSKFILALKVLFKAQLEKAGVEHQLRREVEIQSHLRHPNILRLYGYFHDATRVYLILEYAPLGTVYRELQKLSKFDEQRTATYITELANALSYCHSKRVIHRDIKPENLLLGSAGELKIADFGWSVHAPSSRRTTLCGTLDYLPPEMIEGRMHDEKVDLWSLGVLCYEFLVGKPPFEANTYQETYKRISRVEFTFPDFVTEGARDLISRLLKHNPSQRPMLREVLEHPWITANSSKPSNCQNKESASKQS
Kind of assay: Z'-LYTE kinase assay Aurora A. Format: biochemical. To be noted: read-out: Kinase inhibition, IC50 Aurora A. In a few lines: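 Recombinant human Aurora A (PV3612, Invitrogen) was assayed with a Z′-LYTE™ kinase kit at 16 ng/reaction using Ser/Thr 1 Peptide substrate. Enzyme, peptide and ATP were added to 384-well plates with diluted compounds and incubated 1 hr at room temperature in buffer containing 20 μM ATP, HEPES pH 7.5, 5 mM MgCl2, 0.5 mM EGTA and 0.005% Brij-35.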

The target in another assay is T4, CDK5/p35 (Homo sapiens, UniProt Q00535).
T4 construct: purchased Invitrogen PV3000
Kind of assay: Z'-LYTE kinase assay CDK5/p35. The class given is biochemical. The settings on record: read-out: Kinase inhibition, IC50 CDK5/p35. In short, it runs like this:
as §2

For a further assay, the system named is U2OS cells. The assay is described as follows: 72 h MTT cytotoxicity assay U2OS. The class given is cell-based. To be noted: Homo sapiens. In a few lines: as §1

T2 sequence (P06493 whole entry): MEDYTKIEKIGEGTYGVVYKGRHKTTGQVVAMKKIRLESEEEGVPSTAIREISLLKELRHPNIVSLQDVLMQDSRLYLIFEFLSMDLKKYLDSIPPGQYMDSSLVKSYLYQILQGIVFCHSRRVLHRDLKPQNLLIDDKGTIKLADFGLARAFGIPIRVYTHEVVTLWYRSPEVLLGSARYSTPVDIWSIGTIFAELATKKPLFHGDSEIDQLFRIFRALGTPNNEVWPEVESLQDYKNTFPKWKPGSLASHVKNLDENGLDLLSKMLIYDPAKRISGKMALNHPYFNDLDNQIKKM
T2 sequence (P14635 whole entry partner): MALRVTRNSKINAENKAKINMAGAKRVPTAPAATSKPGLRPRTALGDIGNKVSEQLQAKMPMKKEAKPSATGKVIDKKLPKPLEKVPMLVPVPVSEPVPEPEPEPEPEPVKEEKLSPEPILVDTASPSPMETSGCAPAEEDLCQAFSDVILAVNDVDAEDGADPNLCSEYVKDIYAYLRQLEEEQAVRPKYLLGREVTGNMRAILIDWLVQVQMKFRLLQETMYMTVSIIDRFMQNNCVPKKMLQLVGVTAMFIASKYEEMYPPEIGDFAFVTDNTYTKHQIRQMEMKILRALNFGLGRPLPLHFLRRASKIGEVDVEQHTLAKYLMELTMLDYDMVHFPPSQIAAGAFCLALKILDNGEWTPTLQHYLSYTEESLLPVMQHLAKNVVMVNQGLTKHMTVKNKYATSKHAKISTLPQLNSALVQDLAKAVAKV
T4 sequence (Q00535 whole entry): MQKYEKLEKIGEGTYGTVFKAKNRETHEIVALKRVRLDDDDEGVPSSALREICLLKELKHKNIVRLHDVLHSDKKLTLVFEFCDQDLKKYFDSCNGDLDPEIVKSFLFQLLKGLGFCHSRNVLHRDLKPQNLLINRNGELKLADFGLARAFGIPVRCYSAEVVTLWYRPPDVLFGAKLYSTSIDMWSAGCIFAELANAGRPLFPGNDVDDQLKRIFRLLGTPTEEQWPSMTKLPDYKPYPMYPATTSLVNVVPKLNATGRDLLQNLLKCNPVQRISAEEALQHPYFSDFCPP
T4 sequence (Q15078 whole entry partner): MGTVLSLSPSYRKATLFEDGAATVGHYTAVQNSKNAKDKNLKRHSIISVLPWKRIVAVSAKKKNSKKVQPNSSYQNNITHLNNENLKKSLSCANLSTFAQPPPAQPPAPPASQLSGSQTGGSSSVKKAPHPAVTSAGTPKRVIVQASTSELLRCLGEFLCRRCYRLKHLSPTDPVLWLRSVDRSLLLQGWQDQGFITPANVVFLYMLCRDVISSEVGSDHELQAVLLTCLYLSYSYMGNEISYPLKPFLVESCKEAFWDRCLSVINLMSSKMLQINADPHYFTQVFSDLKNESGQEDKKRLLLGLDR
Aurora B, sequence (Q96GD4 whole entry): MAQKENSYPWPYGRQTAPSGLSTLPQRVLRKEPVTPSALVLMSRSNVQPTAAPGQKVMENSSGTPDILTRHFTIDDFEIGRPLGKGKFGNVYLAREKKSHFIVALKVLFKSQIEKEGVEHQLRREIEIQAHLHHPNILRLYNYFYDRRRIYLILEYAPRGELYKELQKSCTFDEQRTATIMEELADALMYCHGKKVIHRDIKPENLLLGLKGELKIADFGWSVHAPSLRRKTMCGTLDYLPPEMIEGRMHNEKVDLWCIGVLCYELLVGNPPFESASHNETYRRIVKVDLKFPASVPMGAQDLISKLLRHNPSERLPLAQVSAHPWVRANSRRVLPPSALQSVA

Consider `CCCn1cc(-c2ccnc(Nc3ccc(C)c(S(=O)(=O)N4CCOCC4)c3)n2)c2ccncc21` [Compound 102, N-(4-Methyl-3-(morpholinosulfonyl)phenyl)-4-(1-propyl-1H-pyrrolo[2,3-c]pyridin-3-yl)pyrimidin-2-amine], for which the IC50 stood at 3420 nM on Aurora B; 220 nM in the assay with H460-luc; 30 nM at CDK2/cyclinA; 70 nM at CDK1/cyclinB; 1650 nM on Aurora A; 25 nM on CDK5/p35. For the same molecule, in the assay on U2OS cells, the IC50 amounted to 570 nM.

Turning to `CCCn1cc(-c2ccnc(Nc3cccc(S(N)(=O)=O)c3)n2)c2ccncc21` [Compound 111, 3-(4-(1-Propyl-1H-pyrrolo[2,3-c]pyridin-3-yl)pyrimidin-2-ylamino)benzenesulfonamide], the IC50 at Aurora B is 59 nM; in the assay on H460-luc, 6 nM; on CDK2/cyclinA it was 0.5 nM; on CDK1/cyclinB it was 0.4 nM; on Aurora A, 50 nM; on CDK5/p35 it was 0.5 nM. Further, the IC50 with U2OS cells stood at 30 nM.

With `CCCn1cc(-c2ccnc(Nc3ccc(S(N)(=O)=O)cc3)n2)c2ccncc21` [Compound 112, 4-(4-(1-Propyl-1H-pyrrolo[2,3-c]pyridin-3-yl)pyrimidin-2-ylamino)benzenesulfonamide], the IC50 at Aurora B worked out at 1.6 nM; with H460-luc, 20 nM; on CDK2/cyclinA it was 10 nM; on CDK1/cyclinB, 0.4 nM; on Aurora A it was 820 nM; on CDK5/p35, 1.3 nM. This molecule also returned an IC50 in the assay on U2OS cells of 10 nM.

The values above are taken from US8309550B2, “Kinase inhibitors and their use as pharmaceutical agents” (Shanghai Genomics, Inc., priority 2011, dated 2012).
